From patent US20110195929A1, “COMPOUNDS FOR THE TREATMENT OF FLAVIVIRAL INFECTIONS” (SUMMIT CORPORATION PLC, priority 2008, published 2011) come the findings set out here.

Test [1] relates to BVDV. Description: BVDV plaque inhibition assay. As to conditions: for IC50: Bovine viral diarrhea virus isolates and strains, in Bos taurus; for % untreated control: Example 5. It is filed as cell-based, bovine diarrhoea virus (BVDV). The method, then:
BVDV Plaque Assay: In the absence of a suitable cell culture system able to support replication of human HCV, bovine diarrhoea virus (BVDV) is an accepted cell culture model. HCV and BVDV share a significant degree of local protein homology, a common replication strategy and probably the same subcellular location for viral envelopment.
(§1) The materials and procedures were as described in Whitby et al. (2004) Antiviral Chemistry and Chemotherapy 15: 141-151. In brief, MDBK cells were seeded in 96 well plates and allowed to reach confluency. Monolayers were exposed to between 14 and 45 plaque forming units of BVDV and adsorption allowed to take place. Infected monolayers were then exposed to the test compound, medium added containing low gelling-point agarose and allowed to set. The plates were then incubated for 4 days post infection, fixed in 5% formalin and stained with 0.5% neutral red after removal of the agarose layer. Anti-viral activity was measured by determination of plaque inhibition and expressed as IC50 values. Castanospermine, a known viral inhibitor, was used as a positive control.
For these assays a confluent monolayer of MDBK cells is produced in a flat bottomed well of a tissue culture plate. The monolayer is infected with BVDV. Sufficient virus is added to eventually form approximately 20-30 plaques. After allowing approximately 1 hr for the virus to infect, the cells are washed and liquid agar is added and allowed to set as a thin layer over the cell surface (the ‘overlay’). The infected cells are then left for a period of days to allow the virus to replicate and cells to shed virus, detach or lyse. Cells in the immediate vicinity of the initial virus infection are therefore infected—localized by the agar layer.
The test compound is added at appropriate dilutions with the virus. An antiviral effect of the compound is scored by the reduction of plaque number or size. The concentration of compound required to produce a 50% (IC50) reduction of plaque number or size is noted. Controls of no compound added are included. A control of a known antiviral compound (castanospermine) is carried out to calibrate the antiviral activity.
Plaque Assay: The materials and procedures were as described in Whitby et al. (2004) Antiviral Chemistry and Chemotherapy 15: 141-151.
as §1, with “In” for “The materials and procedures were as described in Whitby et al. (2004) Antiviral Chemistry and Chemotherapy 15: 141-151. In”, “Castanospermine (Compound 104),” for “Castanospermine,”

For test [2], the target named is T1, α-D-glucosidase (Saccharomyces cerevisiae, UniProt P53341).
T1 construct: purchased Sigma
T1 sequence (P53341 whole entry): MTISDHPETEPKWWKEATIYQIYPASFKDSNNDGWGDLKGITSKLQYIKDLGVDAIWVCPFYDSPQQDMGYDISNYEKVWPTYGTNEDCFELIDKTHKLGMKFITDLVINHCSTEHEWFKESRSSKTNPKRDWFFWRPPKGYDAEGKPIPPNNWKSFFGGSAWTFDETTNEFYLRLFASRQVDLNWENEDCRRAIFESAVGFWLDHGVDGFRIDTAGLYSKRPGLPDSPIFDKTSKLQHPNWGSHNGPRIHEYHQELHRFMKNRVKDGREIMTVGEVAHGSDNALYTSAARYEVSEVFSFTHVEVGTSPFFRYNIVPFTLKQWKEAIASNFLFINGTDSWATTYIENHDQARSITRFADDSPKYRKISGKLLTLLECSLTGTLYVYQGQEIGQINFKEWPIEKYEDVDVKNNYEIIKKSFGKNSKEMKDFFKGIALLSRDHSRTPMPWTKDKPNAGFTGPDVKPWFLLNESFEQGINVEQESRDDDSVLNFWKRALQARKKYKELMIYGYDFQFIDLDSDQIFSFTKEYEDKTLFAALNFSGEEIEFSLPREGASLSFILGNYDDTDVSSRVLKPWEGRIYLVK
As to the kind of experiment: Glycosidase inhibition: α-D-glucosidase (yeast). The format is biochemical, Saccharomyces cerevisiae (Baker's yeast). Particulars: 1 mg/ml; pH 6.0, 20° C; read-out: % inhibition α-gluc (yeast). The method, then:
Inhibition of the N-linked glycan trimming enzymes alpha-Glucosidases I and II or alpha-Mannosidases I and II are thought to be related to the anti-viral activity of castanospermine (Compound 104) and 1-deoxynojirimycin (Compound 193). […] All enzymes were purchased from Sigma, as were the appropriate p-nitrophenyl substrates. Assays were carried out in microtitre plates. Enzymes were assayed in 0.1M citric acid/0.2M di-sodium hydrogen phosphate (McIlvaine) buffers at the optimum pH for the enzyme. All assays were carried out at 20° C. For screening assays the incubation assay consisted of 10 μl of enzyme solution, 10 μl of inhibitor solution (made up in water at 5 mM) and 50 μl of the appropriate 5 mM p-nitrophenyl substrate (3.57 mM final conc.) made up in McIlvaine buffer at the optimum pH for the enzyme.
The reactions were stopped with 0.4M glycine (pH 10.4) during the exponential phase of the reaction, which was determined at the beginning of the assay using blanks with water, which were incubated for a range of time periods to measure the reaction rate using 5 mM substrate solution. Endpoint absorbances were read at 405 nm with a Bio-rad microtitre plate reader (Benchmark). Water was substituted for the inhibitors in the blanks.

Setting [3] is: Examples 1-3, 50% reduction of plaque number or size, MDBK cells, read-out: IC50 (μg/ml).
Setting [4] is: MDBK, 96 h, read-out: IC50 (μg/ml).

Where two headings read alike, the source gives them in different places.

Turning to `OC[C@@H]1NC[C@H](O)[C@@H]1O` [Compound 167, (2S,3R,4S)-2-(hydroxymethyl)pyrrolidine-3,4-diol], the IC50 in test [1] (setting [3]) was 57.6 µg/mL. The inhibition (usually the percentage by which the read-out fell short of the control) at 1000 µg/mL in test [2] stood at 0%.

Consider `CC[C@@H](O)[C@H]1N[C@H](CO)[C@@H](O)[C@@H]1O` [Compound 62, (2R,3R,4R,5R)-2-(hydroxymethyl)-5-((R)-1-hydroxypropyl)pyrrolidine-3,4-diol], for which the IC50 in test [1] (setting [3]) turned out to be 16.7 µg/mL. Also, the inhibition at 1000 µg/mL in test [2] is 0%.

`O[C@H]1[C@H](O)[C@@H](O)CN2CC[C@H](O)[C@H]12` [Compound 104, Castanospermine, reference compound]: the IC50 is 120 µM in test [1] (MDBK, 96 h, read-out: IC50); 22.5 µg/mL in test [1] (setting [4]); 15.6 µg/mL in test [1] (setting [3]). Also, the “% untreated control” value in test [1] (dose 6.0 μg/ml (0.03 mM)) was determined as 98%; in test [1] (dose 12.5 μg/ml (0.07 mM)), 67%; in test [1] (dose 25.0 μg/ml (0.13 mM)), 46%; in test [1] (dose 50.0 μg/ml (0.26 mM)) it was 12%; in test [1] (dose 100.0 μg/ml (0.53 mM)), 1.1%. Further, in test [2], the inhibition at 1000 µg/mL is 0%.

Take `CC[C@@H]1N[C@@H](CO)[C@H](O)[C@@H](O)[C@@H]1O` [Compound 23, (2S,3R,4S,5S,6S)-2-ethyl-6-(hydroxymethyl)piperidine-3,4,5-triol]: the IC50 in test [1] (MDBK, 96 h, read-out: IC50) stood at 420 µM; in test [1] (setting [4]) it was 80 µg/mL. Besides, the “% untreated control” value in test [1] (dose 32 μg/ml (0.17 mM)) came to 83%; in test [1] (dose 63 μg/ml (0.33 mM)), 56%; in test [1] (dose 125 μg/ml (0.65 mM)), 47%; in test [1] (dose 250 μg/ml (1.30 mM)), 35%; in test [1] (dose 500 μg/ml (2.60 mM)) it was 22%. Besides, the inhibition at 1000 µg/mL in test [2] amounted to 0%.

Turning to `CC(O)[C@H](O)[C@H]1N[C@H](CO)[C@@H](O)[C@@H]1O` (stereo partly drawn) [Compound 63, (2R,3R,4R,5R)-2-((1R)-1,2-dihydroxypropyl)-5-(hydroxymethyl)pyrrolidine-3,4-diol], the IC50 in test [1] (setting [3]) stood at 87.2 µg/mL. Further, the inhibition at 1000 µg/mL in test [2] was 0%.
